Experiments:
[1] = test system: panel of enzymes, ion channels and receptors; test: DiscoverX Safety47 panel; conditions: at 10 μM
Description: Compounds of the invention were tested against the DiscoverX Safety47™ panel. […] No target was inhibited by more than 25% at this concentration.

human Z A1AT [2] = target: T1, human Z A1AT (Homo sapiens, UniProt P01009, E366K); test: A1AT cell secretion assay using HEK-Z cells (ELISA); type: cell-based; set-up: expressed in transfected cells; host or cells: HEK-Z (HEK-EBNA cells containing the Z A1AT plasmid); conditions: HEK-Z cells, 10, 33, 100 and 333 nM, 48 h, cell supernatant
Description: HEK-Z cells, a human embryonic kidney cell line stably transfected with the human Z A1AT gene, were plated into 96 well plates (3.0×10^5 cells/ml with 200 μl of media/well) overnight at 37° C. in a humidified atmosphere containing 5% CO2. Following incubation cells were washed with 200 μl serum-free media three times and media was replaced with treatments in quadruplicate using serum-free media containing either vehicle, 10 μM suberanilohydroxamic acid (SAHA), N,N-dimethyl-4-((6-oxopyrimidin-1(6H)-yl)methyl)benzamide (at concentrations of 10, 33, 100 and 333 nM), N,N-(bis-methyl-d3)-4-((6-oxopyrimidin-1(6H)-yl)methyl)benzamide (at concentrations of 10, 33, 100 and 333 nM) or N-methyl-4-((6-oxopyrimidin-1(6H)-yl)methyl)benzamide (at concentrations of 10, 33, 100 and 333 nM) for 48 h in a 37° C. incubator in a final volume of 200 μl. At the end of the incubation step the supernatants were removed from the wells, centrifuged at 1000×g at 4° C. for 10 min and were assayed for human A1AT levels by ELISA (Human Serpin A1/α1-antitrypsin duo set ELISA, R& D Systems, DY1268) per manufacturer's instructions.
Briefly, a 96 well plate was coated with human A1AT capture antibody overnight at room temperature (1:180 dilution from stock, 100 μl final volume/well). The capture antibody was then removed and wells washed three times with 300 μl wash buffer (0.05% Tween 20 in PBS) and then 200 μl reagent diluent ([…]) was incubated in each well for 1 h at room temperature. […] After which, 50 μl stop solution (2M H2SO4) was added and optical density (OD) of each well was read at 450 nm with 570 nm blank subtracted from each well using a microplate reader. A 4 parameter logistic curve was constructed using GraphPad Prism 7 and A1AT concentrations were determined in each sample by interpolation from a standard curve and multiplying by the appropriate dilution factor.
The amount of A1AT secreted from transfected HEK-EBNA cells into the media was measured by ELISA. […]

human Z A1AT [3] = target: T1, human Z A1AT; test: Circulating human Z A1AT levels in huZ mice; type: in vivo, huZ mouse; set-up: from tissue; host or cells: huZ (PiZZ) transgenic mice, line Z11.03, C57Bl/6 background; made in liver, measured in plasma; conditions: huZ mice, 5, 15 or 50 mg/kg twice a day by oral gavage, 14 days, plasma days 12-14
Excerpt: The huZ mouse (also referred to as the PiZZ mouse) is a transgenic mouse strain that contains multiple copies of the Z variant of the human A1AT gene, developed by two separate groups Dycaico et al (Science (1988) 242:1409-12) and Carlson et al (J. Clin Invest (1989) 83:1183-90). PiZZ mice are on a C57Bl/6 background and express the human Z A1AT protein in liver tissue. The mice used in this study are from the progeny of Carlson and colleagues (transgenic line Z11.03). […]
HuZ mice (n=4/group; male or female) with basal human A1AT plasma levels of between 200-600 μg/ml were treated with either vehicle or N,N-dimethyl-4-((6-oxopyrimidin-1(6H)-yl)methyl)benzamide at 5, 15 or 50 mg/kg twice a day by oral gavage for 14 consecutive days. […] Human Z A1AT levels in mouse plasma samples were measured by ELISA (Human Serpin A1/α1-antitrypsin duo set ELISA, R& D Systems, DY1268) per manufacturer's instructions.
Briefly, a 96 well plate was coated with human A1AT capture antibody overnight at room temperature (1:180 dilution from stock, 100 μl final volume/well). […] After which, 50 μl stop solution (2M H2SO4) was added and optical density (OD) of each well was read at 450 nm with 570 nm blank subtracted from each well using a microplate reader. […]
The effect of N,N-dimethyl-4-((6-oxopyrimidin-1(6H)-yl)methyl)benzamide on circulating levels of human Z A1AT was assessed in a huZ mouse model. […]

T1 sequence (P01009 25-418 E366K): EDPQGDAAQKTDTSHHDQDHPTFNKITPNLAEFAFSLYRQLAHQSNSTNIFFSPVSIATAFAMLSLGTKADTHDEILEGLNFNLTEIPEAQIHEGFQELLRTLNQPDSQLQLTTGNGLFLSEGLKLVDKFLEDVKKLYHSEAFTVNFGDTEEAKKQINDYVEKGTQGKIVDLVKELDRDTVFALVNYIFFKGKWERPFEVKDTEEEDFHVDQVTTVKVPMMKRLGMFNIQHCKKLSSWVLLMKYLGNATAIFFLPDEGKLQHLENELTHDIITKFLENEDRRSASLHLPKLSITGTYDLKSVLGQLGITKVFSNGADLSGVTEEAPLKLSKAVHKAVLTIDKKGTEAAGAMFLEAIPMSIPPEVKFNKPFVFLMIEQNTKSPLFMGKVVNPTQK

## CN(C)C(=O)c1ccc(Cn2cnccc2=O)cc1 [N,N-dimethyl-4-((6-oxopyrimidin-1(6H)-yl)methyl)benzamide]
[1]
  inhibition of any target of the Safety47 panel: ≤ 25%
Human Z A1AT [2]
  secretion of Z A1AT as measured by ELISA: stimulates secretion of Z A1AT in a dose dependent manner
Human Z A1AT [3]
  circulating human Z A1AT compared to baseline levels: stimulates secretion of human Z A1AT compared to baseline levels in huZ mice in a dose dependent manner
